Source: patent publication US7649007B2, “Oxazolidine derivatives as PR modulators” (Wyeth LLC, priority 2006, dated 2010)

Legend:
[1] = target: T1, progesterone receptor (alkaline phosphatase activity in T47D cells) (Homo sapiens, UniProt P06401); assay: Effects of progestins and antiprogestins on alkaline phosphatase activity in T47D cells (antagonist mode); assay type: cell-based; conditions: in the presence of 1 nM progesterone; for IC50: 24 h
T1 construct: determining a compound's effect on alkaline phosphatase activity in T47D cells; endogenous in cells; host or cells: T47D cells
T1 sequence (P06401 1-933): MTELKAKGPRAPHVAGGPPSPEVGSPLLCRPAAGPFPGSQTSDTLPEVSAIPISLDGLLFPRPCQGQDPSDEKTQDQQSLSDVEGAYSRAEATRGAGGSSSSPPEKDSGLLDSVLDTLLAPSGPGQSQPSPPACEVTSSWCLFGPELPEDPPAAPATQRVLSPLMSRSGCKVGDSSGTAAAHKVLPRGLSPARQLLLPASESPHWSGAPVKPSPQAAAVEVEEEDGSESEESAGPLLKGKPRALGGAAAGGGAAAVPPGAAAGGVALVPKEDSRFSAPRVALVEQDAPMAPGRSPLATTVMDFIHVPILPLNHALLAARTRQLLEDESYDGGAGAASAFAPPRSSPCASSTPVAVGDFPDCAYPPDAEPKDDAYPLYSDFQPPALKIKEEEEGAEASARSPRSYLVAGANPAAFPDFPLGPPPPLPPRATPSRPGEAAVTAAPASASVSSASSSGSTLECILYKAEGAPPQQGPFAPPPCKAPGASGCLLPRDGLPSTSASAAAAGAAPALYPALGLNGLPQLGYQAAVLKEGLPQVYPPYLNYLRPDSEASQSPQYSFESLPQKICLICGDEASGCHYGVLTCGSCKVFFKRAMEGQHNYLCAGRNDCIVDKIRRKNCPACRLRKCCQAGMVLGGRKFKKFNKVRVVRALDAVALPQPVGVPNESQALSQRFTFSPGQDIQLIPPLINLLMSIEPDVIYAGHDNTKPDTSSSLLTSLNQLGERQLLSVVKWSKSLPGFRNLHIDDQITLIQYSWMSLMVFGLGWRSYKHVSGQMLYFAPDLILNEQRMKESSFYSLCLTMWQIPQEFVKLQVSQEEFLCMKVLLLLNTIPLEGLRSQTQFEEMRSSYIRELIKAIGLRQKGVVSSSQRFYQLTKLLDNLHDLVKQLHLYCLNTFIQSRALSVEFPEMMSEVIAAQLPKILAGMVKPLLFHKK
Description: (1) Effects of Progestins and Antiprogestins on Alkaline Phosphatase Activity in T47D Cells.
PURPOSE: To identify progestins or antiprogestins by determining a compound's effect on alkaline phosphatase activity in T47D cells.
Culture medium: • DMEM:F12 (1:1) (GIBCO, BRL) supplemented with 5% (v/v) charcoal stripped fetal bovine serum (not heat-inactivated), 100 U/mL penicillin, 100 μg/mL streptomycin, and 2 mM the GlutaMax™ reagent (GIBCO, BRL).
Alkaline phosphatase assay buffer: • I. 0.1M Tris-HCl, pH 9.8, containing 0.2% the Triton® X-100 reagent • II. 0.1M Tris-HCl, pH 9.8, containing 4 mM p-nitrophenyl phosphate (Sigma). B. Cell Culture and Treatment:
Frozen T47D cells were thawed in a 37° C. water bath and diluted to 280,000 cells/mL in culture medium. To each well in a 96-well plate (Falcon, Becton Dickinson Labware), 180 μL of diluted cell suspension was added.
Twenty μL of reference or test compounds diluted in the culture medium was then added to each well. When testing for progestin antagonist activity, reference antiprogestins or test compounds were added in the presence of 1 nM progesterone. The cells were incubated at 37° C. in a 5% CO2/humidified atmosphere for 24 h.
NOTE: For high throughput screening, one concentration of each compound was tested at 0.3 μg/mL. Based on an average molecular weight of 300 g/mol for the compounds in the library, the concentration was approximately 1 μM. Subsequently, active compounds were tested in dose response assays to determine EC50 and IC50. C. Alkaline Phosphatase Enzyme Assay:
At the end of treatment, the medium was removed from the plate. Fifty μL of assay buffer I was added to each well. The plates were shaken in a titer plate shaker for 15 min. Then 150 μL of assay buffer II was added to each well. Optical density measurements were taken at 5 min intervals for 30 min at a test wavelength of 405 nm.
For reference and test compounds, a dose response curve was generated for dose (X-axis) vs. the rate of enzyme reaction (slope) (Y-axis). Square root-transformed data was used for analysis of variance and nonlinear dose response curve fitting for both agonist and antagonist modes. Huber weighting was used to down-weight the effects of outliers. EC50 or IC50 values were calculated from the retransformed values. JMP software (SAS Institute, Inc.) was used for both one-way analysis of variance and non-linear dose response analysis in both single dose and dose response studies.
Progesterone and trimegestone were reference progestins and RU486 was the reference antiprogestin. All reference compounds were run in full dose response curves and the EC50 and IC50 values were calculated.

Compound	melting point [°C]	inhibition at 3 µM ([1]; at 3000 nM) [%]	IC50 [1] [nM]
CC1(C)COC(=O)N1c1nc(-c2cccc(C#N)c2)cs1 [Example 3, 3-[2-(4,4-dimethyl-2-oxo-1,3-oxazolidin-3-yl)-1,3-thiazol-4-yl]benzonitrile]	181 to 183		
C[C@@H]1COC(=O)N1c1nc(-c2ccc(Br)cc2)cs1 [Example 1, (4R)-3-[4-(4-Bromophenyl)-1,3-thiazol-2-yl]-4-methyl-1,3-oxazolidin-2-one]	197 to 199		
CC1(C)COC(=N)N1c1nc(-c2ccc(C#N)cc2)cs1 [Example 4, 4-[2-(2-imino-4,4-dimethyl-1,3-oxazolidin-3-yl)-1,3-thiazol-4-yl]benzonitrile]	158 to 161		53.4
CCC1(CC)COC(=O)N1c1nc(-c2ccc(C#N)cc2)cs1 [Example 2, 4-[2-(4,4-Diethyl-2-oxo-1,3-oxazolidin-3-yl)-1,3-thiazol-4-yl]benzonitrile]	145 to 147		

Next, values leading:

melting point [°C]	inhibition at 3 µM ([1]; at 3000 nM) [%]	IC50 [1] [nM]	Compound
	100		CC1(C)CO/C(=N\S(C)(=O)=O)N1c1nc(-c2ccc(C#N)cc2)cs1 [Example 6, N-{(2Z)-3-[4-(4-Cyanophenyl)-1,3-thiazol-2-yl]-4,4-dimethyl-1,3-oxazolidin-2-ylidene}methanesulfonamide]
		64.4	CC1(C)CO/C(=N\C#N)N1c1nc(-c2ccc(C#N)cc2)cs1 [Example 5, {(2Z)-3-[4-(4-cyanophenyl)-1,3-thiazol-2-yl]-4,4-dimethyl-1,3-oxazolidin-2-ylidene}cyanamide]
		10.8	CC(=O)/N=C1\OCC(C)(C)N1c1nc(-c2ccc(C#N)cc2)cs1 [Example 7, N-{(2Z)-3-[4-(4-Cyanophenyl)-1,3-thiazol-2-yl]-4,4-dimethyl-1,3-oxazolidin-2-ylidene}acetamide]
